Experiment [1] has as its target firefly luciferase (Photinus pyralis, UniProt P08659). Nature of the experiment: Bioluminescent emission spectrum measurement. Format: biochemical. The settings on record: ATP-Mg. Here is the method: In a 200 μL polystyrene tube, potassium phosphate buffer solution (0.5 M, pH 8.0, 20 μl), substrate solution (2.5 mM, 20 μl), enzyme solution (20 μl), to and ATP-Mg solution (10 mM, 40 μl) were mixed, and emission spectrum measurement was performed. An enzyme solution with a concentration of 17 μM was used. Enzymes with a concentration of 1.7 μM for the firefly luciferin and of 170 μM for the phenol-type luciferin, however, were used. The exposure time for emission spectrum measurement was 60 seconds. For the firefly luciferin, however, the time was five seconds.

For experiment [2] the following is noted: University of Tokyo luciferin derivative; cited from earlier work.
The mark [3] stands for this setting: reaction with firefly luciferase, substrate solution 2.5 mM, enzyme solution 17 μM, pH 8.0, exposure 60 seconds.

firefly luciferase, sequence (P08659 whole entry): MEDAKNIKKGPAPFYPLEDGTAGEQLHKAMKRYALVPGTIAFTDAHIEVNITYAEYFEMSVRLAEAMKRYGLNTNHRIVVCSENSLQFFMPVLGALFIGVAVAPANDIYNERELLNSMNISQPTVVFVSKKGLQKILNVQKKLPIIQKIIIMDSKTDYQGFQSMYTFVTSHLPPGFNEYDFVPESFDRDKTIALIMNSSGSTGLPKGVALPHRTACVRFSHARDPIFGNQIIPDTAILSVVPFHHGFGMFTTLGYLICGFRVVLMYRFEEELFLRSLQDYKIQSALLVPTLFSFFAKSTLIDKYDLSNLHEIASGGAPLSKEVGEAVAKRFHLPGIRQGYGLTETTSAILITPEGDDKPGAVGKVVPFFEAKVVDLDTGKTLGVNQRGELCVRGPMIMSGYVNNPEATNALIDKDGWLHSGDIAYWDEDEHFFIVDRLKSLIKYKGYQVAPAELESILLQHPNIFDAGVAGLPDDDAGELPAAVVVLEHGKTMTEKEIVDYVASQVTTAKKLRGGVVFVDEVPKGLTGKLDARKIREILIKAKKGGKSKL

As to `C=CCc1c(O)ccc2nc(C3=N[C@@H](C(=O)O)CS3)sc12` [7-allyl-firefly luciferin 35, 7-allyl-firefly luciferin], the emission wavelength in experiment [1] (setting [3]) turned out to be 605 nm.
As to `Nc1ccc2nc(C3=N[C@@H](C(=O)O)CS3)sc2c1` [Aminoluciferin], the emission wavelength result in experiment [2] was “approximately 610 nm”.
In experiment [1] (firefly luciferin: enzyme 1.7 μM, exposure five seconds, pH 8.0), `O=C(O)C1CSC(c2nc3ccc(O)cc3s2)=N1` (stereo not drawn) [Firefly luciferin] gave an emission wavelength of 565 nm.
As to `C=CCc1c(O)ccc2cc(/C=C/C3=NC(C(=O)O)CS3)ccc12` (stereo not drawn) [compound 21], the emission wavelength entry in experiment [1] (setting [3]) was “approximately 690 nm”; in experiment [1] (reaction with firefly luciferase, substrate solution 2.5 mM, enzyme solution 17 μM, pH 8.0, exposure 60 seconds, listed as FIG. 2), 690 nm.
Turning to `O=C(O)[C@H]1CSC(/C=C/c2ccc3cc(O)ccc3c2)=N1` [compound 39], the emission wavelength in experiment [1] (setting [3]) was found to be 660 nm.
